Laboratory results from paper PMC6065317, “Rice Defensin OsAFP1 is a New Drug Candidate against Human Pathogenic Fungi” (Scientific Reports, 2018).
Where two headings read alike, the source gives them in different places. Where a SMILES comes first, the peptide text is derived from it. Where no end group is shown, it is not given here.

Key:
[1] = tested on: Candida species; conditions: existing antifungal drugs; cited from earlier work
Description: In the present study, functional analyses of the antifungal activity of the rice-derived defensin OsAFP1 were performed. […] Since MIC values of the existing antifungal drugs, such as fluconazole, amphotericin B, and caspofungin, are in the 0.01–1 μM range[48], further engineering to enhance its function may be required before OsAFP1 can be used as a drug. On the other hand, OsAFP1 was extremely stable upon heat and serum treatments and exerted its antifungal activity by inducing apop ...

[2] = tested on: C. albicans CAI4 (IFM 61937); conditions: for IC50: OD650
Description: (§1) Seven microbial strains were used for OsAFP1 antimicrobial activity testing. P. gingivalis ATCC 33277 cells were cultured in modified Gifu anaerobic medium (GAM) (Nissui, Tokyo, Japan) in an anaerobic jar (Mitsubishi Gas Chemical, Tokyo, Japan) in the presence of a deoxygenating regent (AnaeroPack, Mitsubishi Gas Chemical) for 48 h at 37 °C. E. coli K-12 NBRC3301, S. mutans JCM 5705, S. aureus NBRC 12732, and P. acnes JCM 6473 cells were cultured in Luria-Bertani (LB) broth, brain-heart infusion broth (Nissui), trypticase soy broth (BD Biosciences, Franklin Lakes, NJ, USA), and GAM broth (Nissui), respectively, under facultative anaerobic conditions for 4–24 h at 37 °C. C. albicans CAI4 (IFM 61937) cells were cultured in 0.5 × potato dextrose broth (PDB) supplemented with 25 μg/ml of uridine under facultative anaerobic conditions for 14 h at 30 °C. S. cerevisiae BY4742 and S288C cells were cultured in 0.5 × PDB supplemented with 30 μg/ml of uridine, histidine, and lysine and 60 μg/ml of leucine under facultative anaerobic conditions for 14 h at 27 °C. These microbial strains were purchased from the American Type Culture Collection (Manassas, VA, USA), National Institute of Technology and Evaluation (Tokyo, Japan), RIKEN BioResource Center (Tsukuba, Japan), Medical Mycology Research Center (Chiba, Japan), and GE Healthcare (Little Chalfont, UK).
Antifungal assays to determine the MIC of OsAFP1 were performed as follows. Fungal cells (1 × 10^5 cells) were suspended in 100 μl of the appropriate medium containing 0–32 μM OsAFP1 in 96-well Costar cell culture plates. After incubation, OD650 was measured using a plate reader. […] In those cases, the cultures were plated on agar plates (0.5 × PDB), and the peptide concentration at which viable cell numbers were 1% or less than that in the control culture was considered the MIC. GraphPad Prism version 6.00 for Macintosh (GraphPad Software, La Jolla, CA, USA) was used to calculate IC50 values. Experiments were independently repeated at least three times. Detailed growth conditions for each fungus are provided in the “Microorganisms and culture conditions” section above.

[3] = tested on: Saccharomyces cerevisiae S288C; assay: Antifungal assay (growth inhibition, OD650); type: cell-based; conditions: S. cerevisiae S288C; 0.5 × PDB with supplements, 27 °C, 14 h; MIC = >99% reduction of OD650
Description: as §1, with “These microbial strains were purchased from the American Type Culture Collection (Manassas, VA, USA), National Institute of Technology and Evaluation (Tokyo, Japan), RIKEN BioResource Center (Tsukuba, Japan), Medical Mycology Research Center (Chiba, Japan), and GE Healthcare (Little Chalfont, UK).” left out
(§2) Antifungal assays to determine the MIC of OsAFP1 were performed as follows. […] After incubation, OD650 was measured using a plate reader. […]

[4] = tested on: Saccharomyces cerevisiae BY4742; assay: Antifungal assay (growth inhibition, OD650); type: cell-based; conditions: S. cerevisiae BY4742; 0.5 × PDB with supplements, 27 °C, 14 h; MIC = >99% reduction of OD650
Description: as §1, with “These microbial strains were purchased from the American Type Culture Collection (Manassas, VA, USA), National Institute of Technology and Evaluation (Tokyo, Japan), RIKEN BioResource Center (Tsukuba, Japan), Medical Mycology Research Center (Chiba, Japan), and GE Healthcare (Little Chalfont, UK).” left out
as §2

[5] = tested on: C. albicans CAI4 cells; assay: Fungicidal assay (CFU time course); type: cell-based, Candida albicans; conditions: 16 μM (4 × MIC), 30 °C, CFU count, n = 3
Description: C. albicans CAI4 cells (2 × 10^5 cells/ml) were treated with OsAFP1 and incubated at 30 °C for 0, 0.17, 0.5, 1, 2, and 4 h. After being washed three times with KPB, the cells were plated on agar plates (0.5 × PDB). Calculated CFUs in the plate were used as indicators of viable cells. […] Therefore, in the present assay, 4 × MIC concentration was used, because long-term OsAFP1 treatment may produce various undesirable effects other than fungicidal activity and make the assay difficult to interpret. 4 × MIC concentration was also applied in the subsequent annexin V assay and ICC staining analysis.

[6] = tested on: Streptococcus mutans JCM 5705; assay: Antibacterial assay (BacTiter-Glo ATP luminescence); type: cell-based; conditions: S. mutans JCM 5705; brain-heart infusion broth, 37 °C; 0–32 μM; MIC = >99% reduction of ATP luminescence
Description: as §1
(§3) Recombinant OsAFP1 and its mutants used in this study were prepared as described in “Supplementary Information”. Antibacterial assays to determine the MIC of OsAFP1 were performed using a modified BacTiter-Glo Luminescent cell viability assay kit (Promega, Madison, WI, USA). This assay quantifies ATP in bacterial cultures to determine the number of live cells. All procedures were performed following the manufacturer’s instructions. Briefly, bacterial cells (1 × 10^4 cells/ml) were cultured in 100 μl of the appropriate medium (as specified in the “Microorganisms and culture conditions” section) in the presence of 0–32 μM OsAFP1 in 96-well Costar cell culture plates. After appropriate incubation for 4–40 h, 10 μl of Lucifell ATP-eliminating reagent (Kikkoman, Chiba, Japan) was added to each well to reduce medium-derived ATP and mixed for 10 min using an orbital shaker. The cell culture (50 μl) was mixed gently with BacTiter-Glo reagent (50 μl) in a well of white Optiplate-96 plates. After incubation for 15 s, luminescence at 560 nm was measured using a plate reader. MIC was defined as the minimum concentration of OsAFP1 that reduced the sample ATP luminescence by >99% compared with that of the control culture. Experiments were independently repeated at least three times.

[7] = tested on: Porphyromonas gingivalis ATCC 33277; assay: as above; type: cell-based; conditions: P. gingivalis ATCC 33277; modified GAM, anaerobic, 37 °C; 0–32 μM; MIC = >99% reduction of ATP luminescence
Description: as §1, §3

[8] = tested on: Escherichia coli K-12; assay: as above; type: cell-based; conditions: E. coli K-12; LB broth, 37 °C; 0–32 μM; MIC = >99% reduction of ATP luminescence
Description: as §1, §3

[9] = tested on: Staphylococcus aureus subsp. aureus NBRC 12732; assay: as above; type: cell-based; conditions: S. aureus NBRC 12732; trypticase soy broth, 37 °C; 0–32 μM; MIC = >99% reduction of ATP luminescence
Description: as §1, §3

[10] = tested on: Propionibacterium acnes JCM 6473; assay: as above; type: cell-based; conditions: P. acnes JCM 6473; GAM broth, 37 °C; 0–32 μM; MIC = >99% reduction of ATP luminescence
Description: as §1, §3

[11] = tested on: C. albicans CAI4 cells; assay: Annexin V assay (apoptosis, epifluorescence microscopy); type: cell-based, Candida albicans; conditions: 16 μM (4 × MIC), 30 °C, 0.5 h; epifluorescence microscope
Description: After being washed three times with KPB, the cells were resuspended in 500 μl of 1 × binding buffer and mixed with 5 μl each of annexin V-FITC and PI reagent (BioVision, Mountain View, CA, USA). The mixtures were incubated at room temperature in the dark for 5 min, and the cells were then observed under a TE2000-S epifluorescence microscope (Nikon, Tokyo, Japan) equipped with an appropriate objective lens [CFI Plan Fluor 100 × oil (Nikon)] and bandpass filters with 542 nm excitation and 620 nm emission for PI and 494 nm excitation and 518 nm emission for FITC.

[12] = tested on: C. albicans CAI4; assay: Thermal stability (MIC of heat-treated peptide); type: cell-based, Candida albicans; conditions: peptide heated at 100 °C for 10 min, 0–8 μM, OD650, n = 3
Description: Antifungal assays to determine the MIC of OsAFP1 were performed as follows. Fungal cells (1 × 10^5 cells) were suspended in 100 μl of the appropriate medium containing 0–32 μM OsAFP1 in 96-well Costar cell culture plates. After incubation, OD650 was measured using a plate reader. […] In some measurements, because of aggregation of medium components, it was difficult to determine MIC values. In those cases, the cultures were plated on agar plates (0.5 × PDB), and the peptide concentration at which viable cell numbers were 1% or less than that in the control culture was considered the MIC. GraphPad Prism version 6.00 for Macintosh (GraphPad Software, La Jolla, CA, USA) was used to calculate IC50 values. Experiments were independently repeated at least three times. Detailed growth conditions for each fungus are provided in the “Microorganisms and culture conditions” section above.
Thermal stability of OsAFP1 was evaluated by comparing the MIC of heat-treated (10 min at 100 °C) peptide to the MIC of untreated peptide.

[13] = tested on: C. albicans CAI4 cytoplasmic membrane; assay: PI uptake assay (flow cytometry); type: cell-based, Candida albicans; conditions: 4 × IC50 (6 μM melittin, 8 μM OsAFP1, 20 or 24 μM peptide 1, 40 μM peptide 7), 30 °C, 3 h, PI 5 μg/ml, PBS control 0.1 %
Description: C. albicans CAI4 cells (2 × 10^5 cells/ml) were treated with OsAFP1, peptide 1, peptide 7, or melittin at 4 × IC50 concentrations (8 μM for OsAFP1, 24 μM for peptide 1, 40 μM for peptide 7, and 6 μM for melittin[52],[53]) and incubated at 30 °C for 3 h. After the addition of PI (5 μg/ml) and incubation at room temperature in the dark for 30 min, the cells were analysed using a flow cytometer equipped with a 488 nm air-cooled argon laser. At least 10,000 events per sample were recorded. As a negative control, PBS was used instead of antifungal agents, and the mixtures were treated in the same way.

[14] = Table 2, synthetic partial peptides against C. albicans, tested up to 25 μM

C[C@@H]1[C@H](O)[C@@H](C)/C=C/C=C/C=C/C=C/C=C/C=C/C=C/[C@H](O[C@@H]2O[C@H](C)[C@@H](O)[C@H](N)[C@@H]2O)C[C@@H]2O[C@](O)(C[C@@H](O)C[C@@H](O)[C@H](O)CC[C@@H](O)C[C@@H](O)CC(=O)O[C@H]1C)C[C@H](O)[C@H]2C(=O)O [amphotericin B]
MIC values [1]: 0.01 to 1 µM

CSCC[C@H](NC(=O)CNC(=O)[C@H](CCCCN)NC(=O)[C@H](Cc1ccccc1)NC(=O)[C@H](CCCNC(=N)N)NC(=O)[C@H](Cc1c[nH]cn1)NC(=O)[C@@H](N)CO)C(=O)N[C@@H](CS)C(=O)N[C@H](C(=O)N[C@@H](CO)C(=O)O)C(C)C [compound 2] (H-SHRFKGMCVS-OH)
IC50 [2, 14]: 19 µM

CC(C)[C@H](N)C(=O)N[C@@H](CO)C(=O)N[C@@H](CO)C(=O)N[C@@H](CC(N)=O)C(=O)N[C@@H](CC(N)=O)C(=O)N[C@@H](CS)C(=O)N[C@@H](C)C(=O)N[C@@H](CC(N)=O)C(=O)N[C@H](C(=O)O)C(C)C [compound 3] (H-VSSNNCANV-OH)
IC50 [2, 14]: > 25 µM

C[C@@H](O)[C@H](NC(=O)[C@@H](N)CCCNC(=N)N)C(=O)N[C@@H](CCC(=O)O)C(=O)N[C@@H](CO)C(=O)N[C@@H](Cc1ccccc1)C(=O)N1CCC[C@H]1C(=O)N[C@@H](CC(=O)O)C(=O)NCC(=O)N[C@@H](CCC(=O)O)C(=O)O [compound 5] (H-RTESFPDGE-OH)
IC50 [2, 14]: > 25 µM

NCCCC[C@H](NC(=O)[C@H](CS)NC(=O)[C@H](CCC(=O)O)NC(=O)CNC(=O)[C@H](CC(=O)O)NC(=O)[C@@H]1CCCN1C(=O)[C@@H](N)Cc1ccccc1)C(=O)N[C@@H](CO)C(=O)N[C@@H](Cc1c[nH]cn1)C(=O)NCC(=O)O [compound 6] (H-FPDGECKSHG-OH)
IC50 [2, 14]: > 25 µM

OC(Cn1cncn1)(Cn1cncn1)c1ccc(F)cc1F [fluconazole]
MIC values [1]: 0.01 to 1 µM

CC(C)C[C@H](NC(=O)[C@H](CS)NC(=O)[C@H](Cc1c[nH]cn1)NC(=O)[C@@H](N)CCCNC(=N)N)C(=O)N[C@@H](CO)C(=O)N[C@@H](CCC(N)=O)C(=O)N[C@@H](CO)C(=O)N[C@@H](Cc1c[nH]cn1)C(=O)N[C@@H](CCCNC(=N)N)C(=O)N[C@@H](Cc1ccccc1)C(=O)O [peptide 1] (H-RHCLSQSHRF-OH)
IC50 [2, 14]: 6 µM

CC(C)C[C@H](NC(=O)CNC(=O)[C@H](Cc1c[nH]cn1)NC(=O)[C@H](CO)NC(=O)[C@@H](N)CCCCN)C(=O)N[C@@H](CCC(=O)O)C(=O)N[C@@H](CCCNC(=N)N)C(=O)N[C@@H](CCCCN)C(=O)N[C@@H](CS)C(=O)N[C@@H](Cc1ccccc1)C(=O)O [peptide 7] (H-KSHGLERKCF-OH)
IC50 [2, 14]: 10 µM

OsAFP1: rice defensin (Os02g41904, UniProtKB Q6K209); recombinant mature peptide produced in E. coli, four disulphide bonds (RHCLSQSHRFKGMCVSSNNCANVCRTESFPDGECKSHGLERKCFCKKVC; disulfide (positions not given here); UniProt Q6K209 32-80, looked up)
MIC [3]: 16 µM
MIC [4]: 4 µM
C. albicans cells died ([5]; 30 min): about 50%
C. albicans cells died ([5]; 4 h): almost all cells died
MIC [6]: >32 µM
MIC [7]: >32 µM
MIC [8]: >32 µM
MIC [9]: >32 µM
MIC [10]: >32 µM
MIC ([2]; C. albicans CAI4, 1 × 10^5 cells in 100 μl 0.5 × PDB + 25 μg/ml uridine, 30 °C, 14 h, 0–32 μM, MIC = >99% reduction of OD650, repeated at least three times): 4 µM
IC50 ([2]; read-out: half maximal inhibitory concentration (IC50), C. albicans CAI4 growth, GraphPad Prism, wild-type OsAFP1 (Fig. 1a)): 2 µM
annexin V-FITC fluorescence (early apoptosis) [11]: almost all fungal cells emitted fluorescence
MIC of heat-treated peptide [12]: 8 µM
cells stained with PI [13]: 3.6%

caspofungin
MIC values [1]: 0.01 to 1 µM
